One data set deals with CDK4/CycD3 (Homo sapiens, UniProt P11802). Put plainly: Enzymatic inhibitory activity in vitro, CDK4 (Caliper mobility shift, FAM-labeled peptide). Format: biochemical. From the text: (§1) The materials are used in the following assay:
(§2) HEPES: 4-(2-Hydroxyethyl)piperazine-1-ethanesulfonic acid; Brij-35: Polyethylene Glycol Monoisotridecyl Ether; DTT: Dithiothreitol; EDTA: Ethylene Diamine Tetraacetic Acid; CDK4/CycD3: Cyclin dependent kinase 4; CDK6/CycD3: Cyclin dependent kinase 6; Peptide FAM-P22: fluorescein-labeled peptide 22; ATP: adenosine triphosphate; DMSO: dimethyl sulfoxide; Staurosporine; Coating Reagent #3;
(§3) 1. Preparation of 1× Kinase Base Buffer and Stop Buffer:
(§4) (1) 1× Kinase buffer without MnCl2 (50 mM HEPES, pH 7.5, 0.0015% Brij-35, 10 mM MgCl2, 2 mM DTT); (2) Stop buffer (100 mM HEPES, pH 7.5, 0.015% Brij-35, 0.2% Coating Reagent #3, 50 mM EDTA).
(§5) (1) The compound was diluted to 50× of the final desired highest inhibitor concentration in reaction by 100% DMSO. Transferring 100 μL of this compound dilution to a well in a 96-well plate. (2) The compound was diluted by transferring 20 μL of the compound dilution to 60 μL of 100% DMSO in the next well and so forth for a total of 10 concentrations. (3) 100 μL of 100% DMSO was added to two empty wells for no compound control and no enzyme control. (4) Intermediate plate was prepared by transferring 10 μL of compound from source plate to a new 96-well plate and adding 90 μL of 1× kinase buffer to each well of the intermediate plate. The compounds in intermediate plate were mixed for 10 min on shaker. (5) Assay plate was prepared by transferring 5 μL of each well from the 96-well intermediate plate to a 384-well plate in duplicates.
(§6) (1) 2.5× Enzyme solution was prepared by adding kinase in 1× kinase base buffer. (2) 2.5× Peptide solution was prepared by adding FAM-labeled peptide and ATP in the 1× kinase base buffer. (3) 2.5× Enzyme solution was transferred to the assay plate contained 5 μL of compound in 10% DMSO, which was incubated at room temperature for 10 min. (4) 10 μL of 2.5× […] solution was added to each well of the 384-well assay plate. (5) Kinase reaction and stopping, after incubating at 28° C. for specified period of time, 25 μL of stop buffer was added to stop reaction.
(§7) 4. Caliper Reading, Collect Data on Caliper.
(§8) (1) Copying conversion data from Caliper program; (2) Converting conversion values to inhibition values: Percent inhibition=(max−conversion)/(max−min)*100; “max” means the value of control without compound; “min” means the value of control without enzyme; (3) Fitting the data in XLfit to obtain IC50 values.

The target in another data set is CDK6/CycD3 (Homo sapiens, UniProt Q00534). Put plainly: Enzymatic inhibitory activity in vitro, CDK6 (Caliper mobility shift, FAM-labeled peptide). Format: biochemical.
From the text: as §1, §2, §3, §4, §5, §6, §7, §8

A short description of data set [1]: Pharmacokinetics in rats (iv and oral, plasma LC-MS/MS). Format: in vivo, male SD rats. The note with it: rat. The text has this: The assay agents and samples are as shown below:
Propranolol: Propranolol (internal standard); MTBE: Methyl Tertiary Butyl Ether; Cremophor EL: polyoxyethylated castor oil; KolliphorHS 15: polyethylene glycol 12-hydroxystearate; DMSO: dimethylsulfoxide; PEG400: polyethylene glycol 400; 18 male SD rats.
Each test compound prepared was completely dissolved in a mixture of 5% DMSO+10% KolliphorHS 15+35% Saline or 5% DMSO+60% PEG400+35% Saline according solubility property thereof.
Grouping male SD rats weighing 190-250 g randomly to two groups; one group was administered with test compound at a dose of 1.0 mg/kg by intravenous injection, the other group was administered with test compound at a dose of 5.0 mg/kg by oral. After administering, blood samples of intravenous injection group were collected at time points of 0.0833, 0.25, 0.5, 1, 2, 5, 7 and 24 h from caudal vein; blood samples of oral group were collected at time points of 0.25, 0.5, 1, 2, 5, 7 and 24 h from caudal vein. Standard curve was plotted based on concentrations of the samples in a suitable range, the concentrations of test compounds in plasma samples were determined by using LC-MS/MS. Pharmacokinetic parameters were calculated according to drug concentration-time curve using a noncompartmental method by WinNonLin 6.3 software.

The record followed here is patent publication US9828373B2, “2-amino-pyrido[2,3-D]pyrimidin-7(8H)-one derivatives as CDK inhibitors and uses thereof” (SUNSHINE LAKE PHARMA CO., LTD., priority 2014, dated 2017).

Where two headings read alike, the source gives them in different places.

Chain of CDK4/CycD3 (P11802 whole entry, species assumed): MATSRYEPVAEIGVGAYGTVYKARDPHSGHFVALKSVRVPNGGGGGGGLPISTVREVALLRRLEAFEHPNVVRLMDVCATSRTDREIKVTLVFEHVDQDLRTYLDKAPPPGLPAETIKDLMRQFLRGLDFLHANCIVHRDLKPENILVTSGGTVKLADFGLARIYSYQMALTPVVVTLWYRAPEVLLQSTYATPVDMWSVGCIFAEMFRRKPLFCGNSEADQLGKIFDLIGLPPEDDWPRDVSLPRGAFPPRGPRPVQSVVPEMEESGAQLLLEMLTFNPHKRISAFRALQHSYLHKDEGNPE
Chain of CDK4/CycD3 (P30281 whole entry partner, species assumed): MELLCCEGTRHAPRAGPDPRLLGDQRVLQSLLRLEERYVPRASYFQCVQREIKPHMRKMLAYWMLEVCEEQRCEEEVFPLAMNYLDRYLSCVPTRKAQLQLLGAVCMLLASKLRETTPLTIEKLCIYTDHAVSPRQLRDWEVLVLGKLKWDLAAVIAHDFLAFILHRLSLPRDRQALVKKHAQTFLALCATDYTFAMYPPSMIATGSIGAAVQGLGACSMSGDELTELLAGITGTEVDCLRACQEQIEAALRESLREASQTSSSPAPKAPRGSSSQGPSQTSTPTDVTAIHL
Chain of CDK6/CycD3 (Q00534 whole entry, species assumed): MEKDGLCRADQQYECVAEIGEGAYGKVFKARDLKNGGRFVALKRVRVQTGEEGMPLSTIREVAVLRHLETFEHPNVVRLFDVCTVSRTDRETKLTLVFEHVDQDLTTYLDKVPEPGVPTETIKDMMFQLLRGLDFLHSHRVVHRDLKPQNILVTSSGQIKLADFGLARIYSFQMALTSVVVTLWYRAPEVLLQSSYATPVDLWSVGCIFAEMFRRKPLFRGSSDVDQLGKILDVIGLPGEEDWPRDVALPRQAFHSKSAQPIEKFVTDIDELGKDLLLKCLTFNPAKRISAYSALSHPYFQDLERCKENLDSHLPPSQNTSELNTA
Chain of CDK6/CycD3 (P30281 whole entry partner, species assumed): as the sequence (P30281 whole entry partner, species assumed) above

On to `CC(=O)c1c(C)c2cnc(Nc3ccc4c(n3)CCN(CCC(F)(F)F)C4)nc2n(C2CCCC2)c1=O` [Example 5, 6-Acetyl-8-cyclopentyl-5-methyl-2-((6-(3,3,3-trifluoropropyl)-5,6,7,8-tetrahydro-1,6-naphthyridin-2-yl)amino)pyrido[2,3-d]pyrimidin-7(8H)-one], for which the IC50 on CDK4/CycD3 was found to be 25 nM; at CDK6/CycD3, 1060 nM.

In the case of `CC(=O)c1c(C)c2cnc(Nc3ccc4c(n3)CCN(C(=O)CO)C4)nc2n(C2CCCC2)c1=O` [Example 4, 6-Acetyl-8-cyclopentyl-2-((6-(2-hydroxyacetyl)-5,6,7,8-tetrahydro-1,6-naphthyridin-2-yl)amino)-5-methylpyrido[2,3-d]pyrimidin-7(8H)-one], the IC50 on CDK4/CycD3 was determined as 17 nM; at CDK6/CycD3, 62 nM.

Regarding `CC(=O)c1c(C)c2cnc(Nc3ccc4c(n3)CCNC4)nc2n(C2CCCC2)c1=O` [Example 3, 6-Acetyl-8-cyclopentyl-5-methyl-2-((5,6,7,8-tetrahydro-1,6-naphthyridin-2-yl)amino)pyrido[2,3-d]pyrimidin-7(8H)-one], the concentration for half-maximal inhibition (IC50) at CDK4/CycD3 was found to be 5.7 nM. For the same compound, the IC50 on CDK6/CycD3 is 47 nM. The bioavailability in data set [1] (male, SD, in vivo) turned out to be 101%. Moreover, in data set [1] (male, SD, in vivo, iv, 1 mg/kg), the AUC(0-inf) was 587 ng·h/mL, the AUC(0-t) worked out at 485 ng·h/mL, the concentration peaked (Cmax) at 141 ng/mL and the Tmax was found to be 0.42 h. Moreover, the half-life in data set [1] (male, SD, in vivo, iv, 1 mg/kg) is 2.93 h. Further, in data set [1] (male, SD, in vivo, po, 5 mg/kg), the AUC(0-inf) was 2970 ng·h/mL, the AUC(0-t) worked out at 2930 ng·h/mL, the highest level (Cmax) was 293 ng/mL and the Tmax stood at 4 h. For the same compound, the half-life in data set [1] (male, SD, in vivo, po, 5 mg/kg) is 3.91 h.

`CC(=O)c1c(C)c2cnc(Nc3ncnc4c(C5=CCNCC5)csc34)nc2n(C2CCCC2)c1=O` [Example 2, 6-Acetyl-8-cyclopentyl-5-methyl-2-((7-(1,2,3,6-tetrahydropyridin-4-yl)thieno[3,2-d]pyrimidin-4-yl)amino)pyrido[2,3-d]pyrimidin-7(8H)-one]: the IC50 at CDK4/CycD3 was determined as 2390 nM; on CDK6/CycD3, 4810 nM.

On to `CC(=O)c1c(C)c2cnc(Nc3ccc4c(n3)CCN(C(C)=O)C4)nc2n(C2CCCC2)c1=O` [Example 6, 6-Acetyl-2-((6-acetyl-5,6,7,8-tetrahydro-1,6-naphthyridin-2-yl)amino)-8-cyclopentyl-5-methylpyrido[2,3-d]pyrimidin-7(8H)-one], for which the IC50 at CDK4/CycD3 stood at 20 nM; at CDK6/CycD3 it was 65 nM.

Regarding `CC(=O)c1c(C)c2cnc(Nc3ccc4c(n3)CCN(C3CCN(C)CC3)C4)nc2n(C2CCCC2)c1=O` [Example 40, 6-Acetyl-8-cyclopentyl-5-methyl-2-((6-(1-methylpiperidin-4-yl)-5,6,7,8-tetrahydro-1,6-naphthyridin-2-yl)amino)pyrido[2,3-d]pyrimidin-7(8H)-one], the IC50 worked out at 7.2 nM on CDK4/CycD3 and 25 nM on CDK6/CycD3.

Consider `CC(=O)c1c(C)c2cnc(Nc3ccc4c(n3)CCN(C3CCNCC3)C4)nc2n(C2CCCC2)c1=O` [Example 39], for which the concentration for half-maximal inhibition (IC50) amounted to 14 nM at CDK4/CycD3 and 51 nM at CDK6/CycD3.

Take `CC(=O)c1c(C)c2cnc(Nc3ccc4c(n3)CCN(C3COC3)C4)nc2n(C2CCCC2)c1=O` [Example 41, 6-Acetyl-8-cyclopentyl-5-methyl-2-((6-(oxetan-3-yl)-5,6,7,8-tetrahydro-1,6-naphthyridin-2-yl)amino)pyrido[2,3-d]pyrimidin-7(8H)-one]: the IC50 on CDK4/CycD3 is 18 nM; on CDK6/CycD3, 59 nM.

For `CCN1CCc2nc(Nc3ncc4c(C)c(C(C)=O)c(=O)n(C5CCCC5)c4n3)ccc2C1` [Example 7, 6-Acetyl-2-((6-ethyl-5,6,7,8-tetrahydro-1,6-naphthyridin-2-yl)amino)-8-cyclopentyl-5-methylpyrido[2,3-d]pyrimidin-7(8H)-one], the half-inhibitory concentration (IC50) on CDK4/CycD3 was 19 nM; at CDK6/CycD3 it was 83 nM.

In the case of `CC(=O)c1c(C)c2cnc(Nc3ccc4c(ccn4C4CCNCC4)c3)nc2n(C2CCCC2)c1=O` [Example 1, 6-Acetyl-8-cyclopentyl-5-methyl-2-((1-(piperidin-4-yl)-1H-indol-5-yl)amino)pyrido[2,3-d]pyrimidin-7(8H)-one], the figures for the IC50 on CDK4/CycD3 and on CDK6/CycD3 were 6.8 nM and 29.2 nM, respectively.

For `CC(=O)c1c(C)c2cnc(Nc3ccc(N4CCNCC4)cn3)nc2n(C2CCCC2)c1=O` [Palbociclib, reference compound], the AUC(0-inf) came out at 332 ng·h/mL in data set [1] (plasma, male SD rats, iv, 1.0 mg/kg, read-out: AUCINF) and 1400 ng·h/mL in data set [1] (plasma, male SD rats, po, 5.0 mg/kg, read-out: AUCINF). The AUC(0-t) is 294 ng·h/mL in data set [1] (plasma, male SD rats, iv, 1.0 mg/kg, read-out: AUClast) and 1280 ng·h/mL in data set [1] (plasma, male SD rats, po, 5.0 mg/kg, read-out: AUClast). Further, the Cmax is 143 ng/mL in data set [1] (plasma, male SD rats, iv, 1.0 mg/kg, read-out: Cmax) and 156 ng/mL in data set [1] (plasma, male SD rats, po, 5.0 mg/kg, read-out: Cmax). Further, the half-life in data set [1] (plasma, male SD rats, iv, 1.0 mg/kg, read-out: T1/2 (converted)) is 2.72 h; in data set [1] (plasma, male SD rats, po, 5.0 mg/kg, read-out: T1/2 (converted)), 4.28 h. For the same compound, the Tmax in data set [1] (plasma, male SD rats, iv, 1.0 mg/kg, read-out: Tmax) is 0.083 h; in data set [1] (plasma, male SD rats, po, 5.0 mg/kg, read-out: Tmax), 2.67 h. The bioavailability in data set [1] (plasma, male SD rats, po 5.0 mg/kg versus iv 1.0 mg/kg, read-out: F (%)) is 79.9%.
